Data on three compounds can be found in patent EP1161524B1, “CELLS COEXPRESSING AN AMYLOID PRECURSOR PROTEIN AND AN $g(a)-SECRETASE AND THEIR USES IN TEST METHODS AND DIAGNOSTICS” (Fahrenholz, Falk, priority 1999, dated 2000).

One assay addresses T1, gereinigtes ADAM 10 (Bos taurus, UniProt Q10741).
T1 construct: daß die proteolytisch aktivierte Form der Disintegrin-Metalloprotease ADAM 10 im wesentlichen in der Plasmamembranen lokalisiert ist; from tissue; host or cells: bovine kidney plasma membranes
T1 sequence (Q10741 214-748): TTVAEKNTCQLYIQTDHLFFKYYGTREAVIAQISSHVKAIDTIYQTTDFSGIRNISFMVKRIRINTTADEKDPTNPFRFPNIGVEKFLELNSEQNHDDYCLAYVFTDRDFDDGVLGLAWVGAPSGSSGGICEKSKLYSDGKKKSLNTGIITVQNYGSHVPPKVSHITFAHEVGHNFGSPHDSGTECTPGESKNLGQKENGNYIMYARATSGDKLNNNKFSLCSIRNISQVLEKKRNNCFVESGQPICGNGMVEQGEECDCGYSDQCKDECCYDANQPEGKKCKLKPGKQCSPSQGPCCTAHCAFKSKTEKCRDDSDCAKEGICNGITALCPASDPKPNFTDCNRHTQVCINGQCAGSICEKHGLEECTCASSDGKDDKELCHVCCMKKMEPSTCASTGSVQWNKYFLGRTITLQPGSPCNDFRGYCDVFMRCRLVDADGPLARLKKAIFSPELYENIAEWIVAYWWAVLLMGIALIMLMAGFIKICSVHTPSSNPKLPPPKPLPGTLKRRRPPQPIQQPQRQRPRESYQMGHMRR
The assay can be described thus: Inhibition of the proteolytic cleavage of Aβ(11-28) by purified ADAM 10 (metalloproteinase inhibitors). In kind it is biochemical, Rind (Bos taurus). The conditions noted are these: inhibitor concentration 1 mM.

The subject of another assay is HEK-ADAM 10-Zellen. Kind of assay: Immunoblot analysis of APPsα secretion into the medium (antibody 6E10), HEK cells stably expressing ADAM 10. The conditions noted are these: Homo sapiens, HEK293; HEK-ADAM 10 cells, 1 µm PMA, 4 h, Fig. 5 lanes 4 and 5; read-out: Vergrößerung der α-Sekretaseaktivität (APPsα-Freisetzung). In kind it is cell-based. The text has this: (§1) Fig. 5 zeigt die Sekretion von APPsα von HEK- und HEK-ADAM-10-Zellen. • (A) Die Zellen wurden in Gegenwart der bezeichneten Verbindung inkubiert. Nach 4 Stunden wurde das Medium gesammelt, die Proteine präzipitiert und einer Immunoblotanalyse mit dem monoklonalen Antikörper 6E10, gefolgt von einem sekundären [^35S]-markierten Anti-Maus-IgG-Antikörper, unterzogen. • (B) Quantitative Analyse des sekretierten APPsα. Die APPsα entsprechenden radioaktiven Banden wurden mit Hilfe eines Bio-Imaging Analyzer BAS-1800 quantifiziert. Die Meßwerte wurden wie in dem Beispiel beschrieben, auf verschiedene Proteinmengen normiert. […]
(§2) 8.10^5 HEK und HEK-ADAM10-Zellen (HEK-Zellen, die ADAM 10 stabil exprimieren, Verfahren wie oben) wurden auf 5 cm Zellkulturschalen, die mit Poly-L-Lysin behandelt worden waren, ausgesät und fast bis zu Konfluenz hochgezogen. […] Die radioaktiven Banden, die APPsα entsprachen, wurden mit Hilfe des Bio-Imaging-Analysers-BAS-1800 (Fuji) quantifiziert. […]
(§3) Die α-Sekretaseaktivität in HEK-ADAM 10 Zellen wurde mit der Aktivität, die in untransfizierten HEK-Zellen gefunden wurde, verglichen. […] Immunoblotexperimente und Immunopräzipitation nach metabolischer [^35S]-Markierung wurden durchgeführt, um die α-Sekretaseaktivität zu quantifizieren (Fig. 5 und Fig. 6). […]
(Immunoblotting shows a protein as a band on a membrane.)

For another assay, the system named is HEK-Zellen. The assay can be described thus: Immunoblot analysis of APPsα secretion into the medium (antibody 6E10), untransfected HEK cells. In kind it is cell-based. Conditions: Homo sapiens, HEK293, 1 µm PMA, 4 h, Fig. 5 lanes 1 and 2, read-out: Erhöhung der APPsα-Freisetzung.
Description: as §1, §2, §3

Description for gereinigtes ADAM 10: Peptide einer Endkonzentration von 0,3 mM wurden mit 2 µg gereinigten Enzym in 50 µl 50 mM EPPS pH 8,3, 250 mM NaCl bei 37°C 30 Minuten oder 6 Stunden inkubiert. Die Reaktionen wurden mit 2 µl TFA gestoppt. Meßproben wurden mit Hilfe von HPLC auf einer Vydac (The Separation Group, Hesperia, Calif. USA) RP 18 Säule (5 µm, 250 x 4,6 mm) analysiert. Die Peptide wurden mit einem Puffersystem von 0,1 % TFA in Wasser (Puffer A) und 0,1 % TFA, 9,9 % Wasser, 90 % Acetonitril (Puffer B) aufgetrennt, wobei der folgende Gradient angelegt wurde: 0 % B, 5 Min.; 0 bis 70 % B innerhalb 45 Min. Das Molekulargewicht der Proteolyseprodukte wurde mit ESI-Massenspektrometrie bestimmt. Für die Berechnung der prozentualen Spaltung wurde die Peakfläche, die ein Peptid ergab, das ohne Enzym inkubiert und ansonsten identisch behandelt wurde, als Referenz für 100 % herangezogen.
Einige Metalloproteinase-Inhibitoren wurden auf ihre Fähigkeit, die proteolytische Spaltung von Aβ(11-28) durch gereinigtes ADAM 10 zu inhibieren, getestet.

On to `c1cnc2c(c1)ccc1cccnc12` [1,10-Phenanthrolin], for which, at gereinigtes ADAM 10, the “Inhibierung der proteolytischen Spaltung von Aβ(11-28) durch gereinigtes ADAM 10” value was “inhibierte”.
`OC(CS)C(O)CS` (stereo not shown) [DTT]: the “Inhibierung der proteolytischen Spaltung von Aβ(11-28) durch gereinigtes ADAM 10” value on gereinigtes ADAM 10 is “vollständig inhibiert”.
Take `CCCCCCCCCCCCCC(=O)O[C@@H]1[C@@H](C)[C@@]2(O)[C@@H](C=C(CO)C[C@]3(O)C(=O)C(C)=C[C@@H]23)[C@@H]2C(C)(C)[C@]12OC(C)=O` [PMA, Phorbol-12-myristat-13-acetat]: the fold induction at 1 µM in the assay with HEK-ADAM 10-Zellen is 2.5; in the assay with HEK-Zellen, around 6.
